Measurements: patent US10753941B2, “Biocompatible nanoparticles with aggregation induced emission characteristics as fluorescent bioprobes and methods of using the same for in vitro and in vivo imaging” (The Hong Kong University of Science and Technology, priority 2011, dated 2020)
Like-named read-outs stand apart in the source and are kept apart here. Residues, ends and D or L forms follow the SMILES beside them. *: point of attachment. X1 = O=C(CCCc1cn(Cc2ccc(C(=C(c3ccccc3)c3ccccc3)c3ccccc3)cc2)nn1)*

Key:
[1] = system: HT-29 colon cancer cells with overexpressed integrin αvβ3; test: Confocal imaging at 4° C. with TPS-2cRGD; format: cell-based
Description: (§1) Before the detection of integrin αvβ3, HT-29 and MCF-7 cells were cultured in the chambers (LAB-TEK, Chambered Coverglass System) at 37° C., respectively. After 80% confluence, the adherent cells were washed twice with 1×PBS buffer. The TPS-2cRGD solution (2 μM, 0.3 mL) was then added to the chamber. After incubation for 30 min at 4° C., cells were washed two times with 1×PBS buffer and then treated with membrane tracker for 10 min and further washed twice with 1×PBS buffer. The cells were then imaged immediately by confocal laser scanning microscope (CLSM, Zeiss LSM 410, Jena, Germany) with imaging software (Fluoview FV500). The images are analyzed by ImageJ 1.43× program (developed by NIH). The images were taken upon excitation at 405 nm (5% laser power) with a band pass 505-525 nm filter for the probe, and 543 nm (5% laser power) with a band pass 575-635 nm filter for the membrane tracker.

[2] = system: MCF7 breast cancer cells with low integrin αvβ3 expression; test: Confocal imaging at 4° C. with TPS-2cRGD; format: cell-based; conditions: 2 μM, 30 min
Description: as §1

HT-29 cells = test: Real-time uptake imaging of TPS-2cRGD; format: cell-based; conditions: 2 μM, room temperature
Description: HT-29 cells were cultured in the 8-wells chambers (LAB-TEK, Chambered Coverglass System) at 37° C. After 80% confluence, the adherent cells were washed twice with 1×PBS buffer. The TPS-2cRGD solution (2 μM, 0.3 mL) and a small amount of membrane tracker were then added to the chamber. The chambers were placed on the microscope platform immediately and the microscope focused on a collection of cells. The fluorescence images (405 nm excitation and with a band pass 505-525 nm filter for the probe, and 543 nm excitation with a band pass 575-635 nm filter for the membrane tracker) acquired every 5 min.

human integrin αvβ3 = biological target: T1, human integrin αvβ3 (Homo sapiens, UniProt P05106+P06756); test: Titration of TPS-2cRGD with integrin (fluorescence turn-on); format: binding
T1 construct: purchased ImmunoCell
T1 sequence (P06756 31-1048): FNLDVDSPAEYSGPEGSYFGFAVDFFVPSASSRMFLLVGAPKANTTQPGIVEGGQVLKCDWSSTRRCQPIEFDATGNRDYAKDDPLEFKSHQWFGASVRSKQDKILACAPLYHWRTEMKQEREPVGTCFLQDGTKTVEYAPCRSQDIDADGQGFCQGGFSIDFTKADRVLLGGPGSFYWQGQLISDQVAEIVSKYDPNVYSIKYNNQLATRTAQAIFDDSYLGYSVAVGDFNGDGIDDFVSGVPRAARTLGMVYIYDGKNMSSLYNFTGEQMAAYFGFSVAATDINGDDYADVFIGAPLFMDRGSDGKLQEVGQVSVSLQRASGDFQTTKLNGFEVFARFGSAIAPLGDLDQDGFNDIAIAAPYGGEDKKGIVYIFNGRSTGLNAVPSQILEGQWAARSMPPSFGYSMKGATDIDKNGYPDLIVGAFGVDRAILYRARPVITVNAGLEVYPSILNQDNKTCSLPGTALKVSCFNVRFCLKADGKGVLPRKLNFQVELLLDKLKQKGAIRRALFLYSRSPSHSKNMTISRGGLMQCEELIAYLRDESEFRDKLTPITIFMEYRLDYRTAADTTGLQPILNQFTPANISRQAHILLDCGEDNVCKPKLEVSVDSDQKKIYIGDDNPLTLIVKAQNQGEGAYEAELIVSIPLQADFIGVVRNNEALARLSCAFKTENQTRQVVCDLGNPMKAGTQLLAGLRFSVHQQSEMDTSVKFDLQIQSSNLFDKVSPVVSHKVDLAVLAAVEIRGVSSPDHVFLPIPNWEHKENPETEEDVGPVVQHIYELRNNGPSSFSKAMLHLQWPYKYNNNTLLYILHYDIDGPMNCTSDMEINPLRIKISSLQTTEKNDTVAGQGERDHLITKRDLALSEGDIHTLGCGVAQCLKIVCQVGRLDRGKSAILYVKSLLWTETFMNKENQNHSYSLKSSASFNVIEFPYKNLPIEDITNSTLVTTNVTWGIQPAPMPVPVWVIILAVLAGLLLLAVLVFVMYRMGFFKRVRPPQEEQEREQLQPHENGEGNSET
T1 sequence (P05106 27-788): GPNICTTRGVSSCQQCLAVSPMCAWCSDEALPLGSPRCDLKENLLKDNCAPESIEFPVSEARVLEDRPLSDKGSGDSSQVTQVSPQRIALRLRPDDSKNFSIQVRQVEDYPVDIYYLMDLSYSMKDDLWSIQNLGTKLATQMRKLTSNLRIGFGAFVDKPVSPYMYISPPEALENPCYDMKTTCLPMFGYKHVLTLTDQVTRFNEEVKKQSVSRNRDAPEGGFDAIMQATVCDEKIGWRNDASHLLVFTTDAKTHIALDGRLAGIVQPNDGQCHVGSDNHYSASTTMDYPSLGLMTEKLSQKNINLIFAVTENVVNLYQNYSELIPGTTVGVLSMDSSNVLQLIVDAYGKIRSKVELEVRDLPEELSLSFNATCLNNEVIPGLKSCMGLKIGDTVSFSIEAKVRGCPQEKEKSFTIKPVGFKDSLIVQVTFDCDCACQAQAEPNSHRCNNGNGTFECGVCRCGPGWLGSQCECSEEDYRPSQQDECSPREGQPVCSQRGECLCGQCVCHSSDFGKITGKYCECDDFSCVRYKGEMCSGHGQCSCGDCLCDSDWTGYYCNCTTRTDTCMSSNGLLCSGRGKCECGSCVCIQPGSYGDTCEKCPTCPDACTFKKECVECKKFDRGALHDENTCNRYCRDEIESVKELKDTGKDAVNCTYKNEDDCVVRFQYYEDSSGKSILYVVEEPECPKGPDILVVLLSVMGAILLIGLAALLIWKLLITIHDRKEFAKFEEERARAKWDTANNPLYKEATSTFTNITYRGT
Description: (§2) 5 μL of the protein stock solution was diluted with 40 μL of 1×PBS buffer (pH 7.4). 5 μL of TPS-2cRGD (10 μM) was then added and the reaction mixture was incubated at room temperature for 30 min. The reaction mixture was then diluted to a total of 300 μL with deionized water for photoluminescence measurement. The solution was excited at 356 nm, and the emission was collected from 380 to 650 nm.

[3] = system: lysozyme, papain, trypsin and BSA; test: Titration of TPS-2cRGD with other proteins (selectivity); format: binding; conditions: 100 μg mL^−1 protein
Description: as §2

[4] = Water solubility / aggregation of probes in water (LLS, PL); format: physicochemical; conditions: for average diameter of nanoaggregates in water (LLS): DMSO/water v/v=1:199, 10 μM
Text: FIG. 32A illustrates the UV-vis absorption spectra of BATPS (5) and TPS-2cRGD. Both have a similar absorption profile with the maximum at 356 nm. The corresponding photoluminescence (PL) spectra are shown in FIG. 32B, along with the photographs taken under UV irradiation. It is known that AIE fluorogens are virtually non-fluorescent in good solvents but emit intensely when aggregated in poor solvents.
It is well known that AIE dye is virtually non-luminescent in good solvents but emits intensely when aggregated in its poor solvents. […] The excited states are readily annihilated by the intramolecular rotations of phenyl rings. Therefore, very low fluorescence was observed.

[5] = MTT cytotoxicity of TPS-2cRGD; format: cell-based; conditions: human, HT-29 cancer cells; 2, 5 and 10 μM for 12, 24 and 48 h; read-out: metabolic viability
Description: Methylthiazolyldiphenyl-tetrazolium (MTT) assays were used to assess the metabolic activity of HT-29 cancer cells to study the cytotoxicity of TPS-2cRGD. HT-29 cells were seeded in 96-well plates (Costar, Ill., USA) at an intensity of 4×10^4 cells mL^−1. After 24 h incubation, the medium was replaced by the TPS-2cRGD suspension at concentrations of 2, 5, and 10 μM, and the cells were then incubated for 12, 24 and 48 h, respectively. After the designated time intervals, the wells were washed twice with 1×PBS buffer and 100 μL of freshly prepared MTT (0.5 mg mL^−1) solution in culture medium was added into each well. The MTT medium solution was carefully removed after 3 h incubation in the incubator at 37° C. DMSO (100 μL) was then added into each well and the plate was gently shaken to dissolve all the precipitates formed. The absorbance of MTT at 570 nm was monitored by the microplate reader (Genios Tecan). Cell viability was expressed by the ratio of absorbance of the cells incubated with TPS-2cRGD suspension to that of the cells incubated with culture medium only.

caspase-3 [6] = biological target: T2, caspase-3 (Homo sapiens, UniProt P42574); test: Caspase-3 turn-on and hydrolysis of E/Z-TPE-2DEVD; format: biochemical; conditions: for fluorescence turn-on with caspase-3: 10 μM probe, PIPES buffer, caspase-3 100 pM, 37° C.; for rate of enzyme activated hydrolysis (HPLC): recombinant caspase-3 in buffer
T2 construct: purchased R&D Systems
T2 sequence (P42574 29-175 limits assumed): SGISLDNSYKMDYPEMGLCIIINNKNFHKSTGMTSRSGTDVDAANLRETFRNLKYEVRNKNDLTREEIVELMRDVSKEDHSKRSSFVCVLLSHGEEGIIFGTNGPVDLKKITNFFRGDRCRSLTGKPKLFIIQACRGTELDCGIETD
T2 sequence (P42574 176-277 limits assumed): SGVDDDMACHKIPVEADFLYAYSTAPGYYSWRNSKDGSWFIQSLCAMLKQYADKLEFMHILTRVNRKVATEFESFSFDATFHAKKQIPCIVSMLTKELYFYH
Description: Both have a similar absorption profile with an obvious absorbance in the 270-380 nm range.
The enzyme kinetic studies by incubating recombinant caspase-3 with E/Z-TPE-2DEVD in buffer at 37° C. were subsequently performed, and the changes in probe hydrolysis were monitored with HPLC. DMSO stock solutions of TPE-2DEVD were diluted with caspase-3assay buffer (50 mM PIPES, 100 mM NaCl, 1 mM EDTA, 0.1% w/v CHAPS, 25% w/v sucrose, pH=7.2) to make 10 μM working solutions. 5 μL of the recombinant caspase-3 (˜0.04 μg/μL stock solution in assay buffer) was added into the above working solution. The reaction mixture was incubated at room temperature for 60 min and was then diluted to a total of 300 μL with deionized water for photoluminescence measurement. The solution was excited at 312 nm, and the emission was collected from 360 to 600 nm.

[7] = system: caspase-3, pepsin, BSA, trypsin, papain and lysozyme; conditions: protein 100 pM, identical conditions
Description: To further investigate the probe selectivity, Z-TPE-2DEVD was treated with several proteins, such as caspase-3, pepsin, BSA, trypsin, papain and lysozyme, under identical conditions.

MCF-7 cancer cells = test: Long term cellular tracking with two-photon fluorescence imaging; format: cell-based; conditions: 1 μM, 4 h incubation; FTNPs two-photon 800 nm, MTR one-photon 560 nm
Description: The performance of FTNPs in MCF-7 cancer cell tracking was investigated and compared with that of commercial Mitotracker red (MTR).
MCF-7 breast cancer cells were cultured in Dulbecco's Modified Eagle Medium (DMEM) containing 10% fetal bovine serum and 1% penicillin streptomycin at 37° C. in a humidified environment containing 5% CO2.
Prior to the experiment, MCF-7 breast cancer cells were pre-cultured until confluence was reached. After incubation with FTNPs and Mitotracker red (MTR) in DMEM medium (FBS-free) at 1 μM T1 and MTR for 4 h at 37° C., respectively, the corresponding cells were detached by 1× tripsin and suspended in culture medium with different cell densities. The cells were then cultured on round coverslip in 35 mm petri dishes for 0, 1, 2, 3, 4 and 5 days, respectively. After designated time intervals, the medium was removed and the adherent cells were washed twice with 1×PBS buffer, followed by fixation using 75% ethanol for 20 minutes. The cells were further washed twice with 1×PBS buffer and the coverslips were then mounted on glass slides using mounting medium in purpose of long-term storage. […] The detection of two-photon excited fluorescence of FTNPs was achieved by excitation at 800 nm with a 600-800 nm bandpass filter. On the other hand, the one-photon excited fluorescence signal from MTR was collected with a 600-800 nm bandpass filter upon 560 nm excitation.

caspase-7 = biological target: T3, caspase-7 (Homo sapiens, UniProt P55210); test: Caspase turn-on assay of AcDEVDK-TPE; format: biochemical
T3 construct: purchased R&D Systems
T3 sequence (P55210 24-198 limits assumed): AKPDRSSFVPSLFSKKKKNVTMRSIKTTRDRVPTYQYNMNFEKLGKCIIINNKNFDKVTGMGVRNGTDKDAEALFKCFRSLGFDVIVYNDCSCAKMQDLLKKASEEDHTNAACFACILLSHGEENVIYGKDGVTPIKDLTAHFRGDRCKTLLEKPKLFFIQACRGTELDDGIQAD
T3 sequence (P55210 207-303 limits assumed): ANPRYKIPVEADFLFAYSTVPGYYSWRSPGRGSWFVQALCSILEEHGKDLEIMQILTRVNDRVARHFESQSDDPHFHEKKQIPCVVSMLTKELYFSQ
Text: (§3) Cleavage of the peptide substrates AcDEVDK-TPE by caspase-3 or caspase-7 was monitored in quartz cells or in black flatbottom polypropylene 384-well plates (Nunc, USA). The corresponding concentrations of substrate and enzymes were used for each assay. Enzymatic cleavage of the substrates was monitored by fluorescence increase (excitation and emission wavelengths at 312 nm and 480 nm respectively) with on a Perkin-Elmer LS 55 spectrofluorometer or a Synergy TM 2 multi-mode microplate reader (Biotek Instruments).

caspase-3 [8] = biological target: T2, caspase-3; test: Caspase turn-on assay of AcDEVDK-TPE; format: biochemical
Text: as §3

HeLa cells = test: Apoptosis imaging in live cells with AcDEVDK-TPE; format: cell-based, human; conditions: 5 μM probe
Description: The cells were cultured in the chambers (LAB-TEK, Chambered Coverglass System) at 37° C., respectively. After 80% confluence, the adherent cells were washed twice with 1×PBS buffer. The AcDEVD-TPE solution (5 μM, 0.3 mL) was then added to the chamber. After incubation for 2 h at 37° C., cells were washed two times with 1×PBS buffer. To induce apoptosis, cells were incubated with 1.0 μM of staurosporine for 1 hr and then imaged immediately by confocal laser scanning microscope (CLSM, Zeiss LSM 410, Jena, Germany) with imaging software (Fluoview FV500). The images are analyzed by ImageJ 1.43× program (developed by NIH).

[9] = system: BSA, HSA, Lysozyme, Pepsin and Trypsin; test: Selectivity of AcDEVDK-TPE against other proteins; format: biochemical; conditions: 20 μg mL^−1 protein, 5 μM probe
Description: AcDEVDK-TPE was treated with five other enzymes which are widely present in cells, such as BSA, HSA, Lysozyme, Pepsin and Trypsin under the same conditions.

[10] = inferred from weak fluorescence / LLS

Compound: C[Si]1(C)C(c2ccc(Cn3cc(C[C@@H]4NC(=O)[C@@H](Cc5ccccc5)NC(=O)[C@H](CC(=O)O)NC(=O)CNC(=O)[C@H](CCCNC(=N)N)NC4=O)nn3)cc2)=C(c2ccccc2)C(c2ccccc2)=C1c1ccc(Cn2cc(C[C@@H]3NC(=O)[C@@H](Cc4ccccc4)NC(=O)[C@H](CC(=O)O)NC(=O)CNC(=O)[C@H](CCCNC(=N)N)NC3=O)nn2)cc1 [TPS-2cRGD]
- fluorescent signal of live cells (CLSM) ([1]; 2 μM, 30 min, 4° C.): strong fluorescent signal
- fluorescent signal after pre-treatment with free cyclic RGD peptide ([1]; 10 μM cyclic RGD peptide, then 2 μM probe): significantly reduced
- fluorescent signal of live cells (CLSM) [2]: very weak fluorescence
- incubation time after which the probe is gradually internalized within cells (HT-29 cells): > 25 min
- fluorescence enhancement on incubation with integrin αvβ3 (human integrin αvβ3; 10 μM probe, integrin 0 to 100 μg mL^−1): up to a seven-fold fluorescence enhancement
- limit of detection for integrin αvβ3 in solution (human integrin αvβ3; three times the standard deviation): 4 µg/mL
- change of PL intensity with other proteins [3]: very little change of PL intensity
- average diameter of nanoaggregates in water (LLS) [4]: no detectable signal
- solubility in water [4, 10]: good solubility in water
- viability [5]: ~100%

Compound: Z-TPE-2DEVD: stereoisomer of Asp-Glu-Val-Asp (DEVD) peptide-conjugated TPE probe (TPE-2DEVD)
- fluorescence turn-on with caspase-3 (caspase-3 [6]): stronger fluorescence enhancement
- rate of enzyme activated hydrolysis (HPLC) (caspase-3 [6]): slower hydrolysis rate
- probe selectivity, changes in (I−I0)/I0 [7]: specific probe for caspase-3
- solubility in water [4, 10]: good solubility in water

Compound: E-TPE-2DEVD: stereoisomer of Asp-Glu-Val-Asp (DEVD) peptide-conjugated TPE probe (TPE-2DEVD)
- fluorescence turn-on with caspase-3 (caspase-3 [6]): strong fluorescence signals
- rate of enzyme activated hydrolysis (HPLC) (caspase-3 [6]): faster
- solubility in water [4, 10]: good solubility in water

Compound: ClCc1ccc(C2=c3cc4c5c(c3Oc3c2cc2c6c3CCCN6CCC2)CCC[N+]=5CCC4)cc1.[Cl-] [MTR]
- time over which fluorescence in treated cells is sustained / detectable (MCF-7 cancer cells): 1 days

Compound: CC(=O)N[C@@H](CC(=O)O)C(=O)N[C@@H](CCC(=O)O)C(=O)N[C@H](C(=O)N[C@@H](CC(=O)O)C(=O)N[C@@H](CCCCNC(=O)CCCc1cn(Cc2ccc(C(=C(c3ccccc3)c3ccccc3)c3ccccc3)cc2)nn1)C(N)=O)C(C)C [AcDEVDK-TPE] (Ac-DEVDK(X1)-NH2)
- fluorescence on incubation with caspase-7 (caspase-7; 0 to 120 min): time-dependent increase in fluorescence
- fluorescence with caspase-7 pretreated with inhibitor (caspase-7; 10 μM caspase inhibitor): no fluorescence turn-on
- fluorescence on incubation with caspase-3 (caspase-3 [8]; 0 to 120 min): time-dependent increase in fluorescence
- fluorescence enhancement with caspase-3 (caspase-3 [8]; 5 μM probe, 200 pM caspase-3): up to ten-fold fluorescence enhancement
- fluorescence with caspase-3 pretreated with inhibitor (caspase-3 [8]; 10 μM caspase inhibitor): no fluorescence turn-on
- fluorescence in nonapoptotic cells (HeLa cells): very weak green fluorescence
- fluorescence in apoptotic cells (HeLa cells; apoptosis induced with staurosporine): strong green fluorescence
- change of PL intensity with other proteins [9]: very little change of PL intensity
- solubility in water [4]: good solubility in water

Compound: C[Si]1(C)C(c2ccc(CN=[N+]=[N-])cc2)=C(c2ccccc2)C(c2ccccc2)=C1c1ccc(CN=[N+]=[N-])cc1 [BATPS, 1,1-dimethyl-2,5-bis[4-(azidomethyl)phenyl]-3,4-diphenylsilole]
- average diameter of nanoaggregates in water (LLS) [4]: 103 nm
